Key:
[1] = Inhibition of Escherichia coli acetyltransferase activity of GlmU using acetyl-CoA and glucosamine-1-phosphate after 30 mins by Ellman's method
[2] = Inhibition of Haemophilus influenzae acetyltransferase activity of GlmU using acetyl-CoA and glucosamine-1-phosphate after 30 mins by Ellman's method
[3] = Lipophilicity, log D of the compound at pH 7.4; conditions: buffer
[4] = biological target: Bifunctional protein GlmU (Streptococcus pneumoniae serotype 4 (strain ATCC BAA-334 / TIGR4), UniProt Q97R46); assay: (§1) Inhibition of Streptococcus pneumoniae acetyltransferase activity of GlmU using acetyl-CoA and glucosamine-1-phosphate after 30 mins by Ellman's method
[5] = Inhibition of Staphylococcus aureus acetyltransferase activity of GlmU using acetyl-CoA and glucosamine-1-phosphate after 30 mins by Ellman's method
[6] = biological target: Bifunctional protein GlmU (Streptococcus pneumoniae serotype 4 (strain ATCC BAA-334 / TIGR4)) (UniProt Q97R46); assay: as §1
Chain of Bifunctional protein GlmU (Streptococcus pneumoniae serotype 4 (strain ATCC BAA-334 / TIGR4)) (Q97R46 whole entry): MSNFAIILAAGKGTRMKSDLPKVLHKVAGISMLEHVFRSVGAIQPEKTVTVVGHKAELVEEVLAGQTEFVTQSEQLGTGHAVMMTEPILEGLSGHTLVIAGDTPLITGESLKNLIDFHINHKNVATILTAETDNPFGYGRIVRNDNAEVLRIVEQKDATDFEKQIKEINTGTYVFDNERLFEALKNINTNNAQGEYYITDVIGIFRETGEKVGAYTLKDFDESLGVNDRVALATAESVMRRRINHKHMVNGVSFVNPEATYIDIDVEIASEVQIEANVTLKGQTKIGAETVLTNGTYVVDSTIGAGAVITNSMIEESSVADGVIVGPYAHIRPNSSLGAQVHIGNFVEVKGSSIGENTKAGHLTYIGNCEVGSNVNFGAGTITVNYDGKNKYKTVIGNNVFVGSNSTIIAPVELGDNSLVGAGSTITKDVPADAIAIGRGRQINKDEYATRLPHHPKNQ

Chain of Bifunctional protein GlmU (Q97R46 whole entry): as above

Compound	IC50 [1] [µM]	IC50 [2] [µM]	logD [3]	IC50 [4] [µM]	IC50 [5] [µM]	inhibition [6] [%]
COc1cc(OC)c(S(=O)(=O)N2c3ccccc3CCC2C)cc1NC(C)=O (stereo not drawn)	1.5	3	1.97	55	> 200	
COc1cc(OC)c(S(=O)(=O)N2CCCCC2)cc1NC(C)=O	80	> 200		> 200	> 200	
COc1cc(OC)c(S(=O)(=O)N2c3ccccc3CCC2C)cc1NC(=O)/C=C/C(=O)O (stereo not drawn)	0.5	2		10	> 200	
COc1cc(OC)c(S(=O)(=O)Nc2cccc(C)c2)cc1NC(C)=O	17	40		> 200	> 200	
COc1cc(OC)c(S(=O)(=O)NCc2ccccc2N2CCCCC2)cc1NC(=O)CCC(=O)O	3	5	-0.72	12	> 200	
COc1cc(OC)c(S(=O)(=O)NCc2ccccc2N2CCC(COC(=O)CCC(=O)O)CC2)cc1NC(=O)CCC(=O)O	0.25		-1		> 200	
COC(=O)c1ccccc1CNS(=O)(=O)c1cc(NC(C)=O)c(OC)cc1OC	15	55		> 200	> 200	
COc1cc(OC)c(S(=O)(=O)N2c3ccccc3CCC2C)cc1NC(=O)NCC(=O)O (stereo not drawn)	0.5	5	-1.02	20	> 200	
COc1cc(OC)c(S(=O)(=O)N2c3ccccc3CCC2C)cc1NS(C)(=O)=O (stereo not drawn)	100	> 200		> 200	> 200	
COc1cc(OC)c(S(=O)(=O)NCc2ccccc2Br)cc1NC(C)=O	4	20		> 200	> 200	
COc1cc(OC)c(S(=O)(=O)N2c3ccccc3CCC2C)cc1NC(=O)CSCC(=O)O (stereo not drawn)	0.1	0.2	-1.2	> 200	> 200	
COc1cc(OC)c(S(=O)(=O)Nc2cccc(F)c2)cc1NC(C)=O	15	30		> 200	> 200	
COc1cc(OC)c(S(=O)(=O)N2CCCC2C)cc1NC(C)=O (stereo not drawn)	> 200	> 200		> 200	> 200	
COc1cc(OC)c(S(=O)(=O)N2c3ccccc3CCC2C)cc1NC(=S)NCC(=O)O (stereo not drawn)	0.5	1	-1.04	30	> 200	
COc1cc(OC)c(S(=O)(=O)Nc2ccccc2F)cc1NC(C)=O	5	10		> 200	> 200	
COc1cc(OC)c(S(=O)(=O)NCc2ccccc2-c2ccc(C(=O)O)cc2)cc1NC(=O)CCC(=O)O	0.9	5		15		
COc1cc(OC)c(S(=O)(=O)N2c3ccccc3CC2C)cc1NC(C)=O (stereo not drawn)		8		> 200	> 200	
COc1cc(OC)c(S(=O)(=O)NCc2ccccc2N2CCC(CO)CC2)cc1NC(=O)CCC(=O)O	3	6	< -1	5	> 200	
COc1cc(OC)c(S(=O)(=O)NCc2ccccc2N2CCC(C(=O)O)CC2)cc1NC(=O)CCC(=O)O	0.5	1		2	50	

Compound	IC50 [1] [µM]	IC50 [2] [µM]	logD [3]	IC50 [4] [µM]	IC50 [5] [µM]	inhibition [6] [%]
COc1cc(OC)c(S(=O)(=O)N2c3ccccc3CCC2C)cc1NC(=O)COC(C)=O (stereo not drawn)	2	2		90	> 200	
COc1cc(OC)c(S(=O)(=O)NCc2ccc3c(c2)OCO3)cc1NC(C)=O	> 200	> 200		> 200	> 200	
COc1cc(OC)c(S(=O)(=O)N(C)C)cc1NC(C)=O	> 200	> 200		> 200	> 200	
COc1cc(OC)c(S(=O)(=O)N(C)c2ccccc2)cc1NC(C)=O	3	6		> 200	> 200	
COc1cc(OC)c(S(=O)(=O)NCc2ccccc2N2CCCCC2)cc1NC(C)=O	> 200	120			> 200	
COc1ccccc1CNS(=O)(=O)c1cc(NC(C)=O)c(OC)cc1OC	10	54		> 200	> 200	
COc1cc(OC)c(S(=O)(=O)Nc2ccc(C)cc2)cc1NC(C)=O	21	47		> 200	> 200	
COc1cc(OC)c(S(=O)(=O)Nc2ccccc2)cc1NC(C)=O	20	70		> 200	> 200	
COc1cc(OC)c(S(=O)(=O)N2c3ccccc3CCC2C)cc1NC(=O)COc1ccc(C(C)=O)cc1 (stereo not drawn)	> 200	> 200		> 200	> 200	
COc1cc(OC)c(S(=O)(=O)N2c3ccccc3CCC2C)cc1NC(=O)CCC(=O)O (stereo not drawn)	0.09	0.6	-0.87	20	> 200	
COc1cc(OC)c(S(=O)(=O)Nc2ccc(F)cc2)cc1NC(C)=O	25	60		> 200	> 200	
COc1cc(OC)c(S(=O)(=O)N(c2ccccc2)C(C)C)cc1NC(C)=O	2	16		> 200	> 200	
COc1cc(OC)c(S(=O)(=O)N2c3ccccc3CCC2C)cc1NC(=O)c1ccccc1 (stereo not drawn)	> 200	> 200		> 200	> 200	
COc1cc(OC)c(S(=O)(=O)NCc2ccccc2N2CCC(CO)CC2)cc1NC(C)=O	40	80	1.03	70	> 200	
COc1cc(OC)c(S(=O)(=O)N2c3ccccc3CCC2C)cc1NC(=O)CSc1ccncc1 (stereo not drawn)	1	6	2.8	> 200	> 200	
COc1cc(OC)c(S(=O)(=O)N2c3ccccc3CCC2C)cc1NC(=O)COCC(=O)O (stereo not drawn)	0.2	0.3	-1		> 200	28
COc1cc(OC)c(S(=O)(=O)N2CCCCC2C)cc1NC(C)=O (stereo not drawn)	130	> 200		> 200	> 200	
COc1cc(OC)c(S(=O)(=O)NCc2ccccc2N2CCC(CC(=O)O)CC2)cc1NC(=O)CCC(=O)O	< 0.4	3		2	10	
CCN(c1ccccc1C)S(=O)(=O)c1cc(NC(C)=O)c(OC)cc1OC	15	80		> 200	> 200	

From ChEMBL document CHEMBL1949578, “Inhibitors of acetyltransferase domain of N-acetylglucosamine-1-phosphate-uridyltransferase/glucosamine-1-phosphate-acetyltransferase (GlmU). Part 1: Hit to lead evaluation of a novel arylsulfonamide series” (Bioorg Med Chem Lett, 2012)
